# Reference: patent US9522130B2, “Use of miR-221 and 222 lowering agents to prevent cardiovascular disease in diabetic subjects” (priority 2013, dated 2016)
# Entries after “also recorded” stand apart in the source; their conditions may differ.
# Tests used:
# [1] = tested on: non-diabetic animals; settings: previous reports (9); cited from earlier work
# [2] = tested on: p27^Kip1 mRNA; assay: Half-life of p27Kip1 mRNA in serum-stimulated VSMCs; type: cell-based; settings: VSMCs from diabetic mice stimulated with serum
# Procedure: FIG. 4. Increased ERK activation promotes loss of p27^Kip1 in diabetic mice. A) The ratio of phosphorylated (active) ERK to total ERK in the aortae of non-diabetic (ND) mice and diabetic mice receiving either vehicle (DM) or the ERK pathway inhibitor (DM+EI) U0126, ip, 7.5 mg/kg/d for 3 days). p27^Kip1 protein (B) and mRNA (C) levels in the same mice as in A. D and E) The half-life of p27^Kip1 mRNA in VSMCs from DM and ND mice stimulated with serum with and without the ERK pathway inhibitor PD98059 (D,PD) or siRNA targeting ERK (E, ERK siRNA). † indicate p<0.05 by ANOVA (B and D) or Student's t-test (E and F).
# [3] = tested on: miR-221/222; assay: miR-221/222 levels in internal mammary arteries of coronary artery bypass patients by real-time PCR; type: in vivo, human; settings: diabetic patients currently taking metformin (DMMet+), coronary artery bypass surgery
# Procedure: FIG. 13. miR-221/222 are reduced in the vasculature of diabetic patients taking the AMPK agonist metformin. miR-221/222 levels were measured using real-time PCR methods in the internal mammary arteries of non-diabetic (ND), diabetic subjects currently taking metformin (DMMet+), and diabetic subjects not taking metformin (DMMet−) undergoing coronary artery bypass surgery. […] Data represent the mean±SEM.
# [4] = tested on: miR-221/222; assay: miR-221/222 levels in VSMCs incubated with AMPK agonist; type: cell-based; settings: VSMCs from diabetic mice; 3 h incubation
# Procedure: FIG. 11. The increase in miR-221/222 in VSMCs from the DM mice is reversed by AMPK activation. miR-221/222 levels were measured in VSMCs from non-diabetic and diabetic mice incubated with vehicle (Con) and the AMPK agonist, Metformin (Met) for 3 h. Data represent the mean±SEM.
# FIG. 12. The increase in miR-221/222 in VSMCs from the DM mice is reversed by AMPK activation. miR-221/222 levels were measured in VSMCs from non-diabetic and diabetic mice incubated with vehicle (Con) and the AMPK agonist, AICAR for 3 h. Data represent the mean±SEM.
# [5] = tested on: miR-221/222; settings: diabetic mice; 3 d post-injury or sham
# Procedure: FIG. 6. […] Femoral artery wire injury or sham procedure was performed in the non-diabetic (ND) and diabetic (DM) mice and miR-221 levels were measured 3d post-injury. A group of MF-12 mice (Sham+EI) received a MEK1 inhibitor (U0126, […]). Data represent the mean±SEM.
# [6] = tested on: diabetic and non-diabetic mice; assay: Femoral artery wire injury, neointima formation / intimal thickening; type: in vivo
# Procedure: FIG. 1. Neointimal hyperplasia is increased in an mTOR-independent manner in diabetic mice. Femoral artery wire injury was performed in the mice in diabetic mice (DM) and non-diabetic mice […] and neointima formation was assessed at 14 days post-injury. […] Data represent the mean±SEM. † indicates p<0.05 by ANOVA with Tukey's HSD.
# FIG. 10. Diabetes induces an increase in miR-221/222 that increases intimal thickening. Intimal thickening was measured in the wire injured femoral arteries of diabetic and non-diabetic mice receiving a Pluronic gel containing either control oligonucleotide (NT) or 2′OMe-miR-222 (AS) after 14 days. Data represent the mean±SEM and † indicates p<0.05 by ANOVA using Tukey's HSD.
# FIG. 14. […] Mean intima:media ratios of ND and DM mice following femoral artery wire injury and implantation of a Pluronic-F 127 gel containing either vehicle or rapamycin (100 μg) with and without administration of the ERK pathway inhibitor, U0126 (7.5 mg/kg/d). Bars indicate p<0.05 by ANOVA.
# [7] = tested on: miR-221/222; assay: miR-221 and miR-222 levels in injured femoral arteries by quantitative real-time PCR; type: in vivo; settings: diabetic mice; Pluronic gel on injured femoral artery; 7 days
# Procedure: FIG. 7. Diabetes induces an increase in miR-221/222 levels in arteries. Total RNA was prepared from injured femoral arteries of diabetic and non-diabetic mice receiving a Pluronic gel containing either control oligonucleotide (NT) or 2′OMe-miR-222 (AS) for 7 days. Levels of miR-221 and miR-222 were measured using quantitative real-time PCR with U6 as a loading control. Data is normalized to the ND. Data represent the mean±SEM and † indicates p<0.05 by ANOVA using Tukey's HSD.
# [8] = tested on: p27^Kip1; assay: p27Kip1 protein ELISA in injured femoral arteries; type: in vivo; settings: diabetic mice; Pluronic gel on injured femoral artery; 7 days
# Procedure: FIG. 9. Diabetes induces an increase in miR-221/222 that reduces p27^Kip1 levels in arteries Protein lysates were prepared from injured femoral arteries of diabetic and non-diabetic mice receiving a Pluronic gel containing either control oligonucleotide (NT) or 2′OMe-miR-222 (AS) after 7 days. Levels of p27^Kip1 protein levels were measured using an ELISA kit. Data is normalized to the ND. Data represent the mean±SEM and † indicates p<0.05 by ANOVA using Tukey's HSD.
compound,measurement,setting,value
COc1cccc(-c2cc(=O)c3ccccc3o2)c1N [PD98059],cell proliferative aspect of intimal thickening following arterial injury,[1],not effective
same,accelerated degradation (half-life) of p27Kip1 mRNA,[2],effective at blocking the accelerated degradation
CN(C)C(=N)N=C(N)N [metformin],miR-221/222 levels in internal mammary arteries,[3],normal levels
same,miR-221/222 levels in VSMCs,[4],effective in reducing miR-221/222 in the VSMCs from diabetic mice to levels similar to VSMCs from non-diabetic mice
N#CC(=C(/N)Sc1ccccc1N)/C(C#N)=C(\N)Sc1ccccc1N [U0126],increase in miR-221/222 levels in the vasculature,[5],blocked
same,intimal hyperplasia following wire injury,"[6]; diabetic mice, U0126 7.5 mg/kg/d",reduces intimal hyperplasia
same,sensitivity of intimal thickening to rapamycin,"[6]; diabetic mice, U0126 7.5 mg/kg/d co-administered with local rapamycin 100 μg, 7.5 mg/kg/day",restores sensitivity to rapamycin; also recorded: restores the ability of rapamycin to intimal thickening
same,intimal thickening (intima:media ratio),"[6]; non-diabetic mice, U0126 7.5 mg/kg/d co-administered with local rapamycin",minimal effects
NC(=O)c1ncn([C@@H]2O[C@H](CO)[C@@H](O)[C@H]2O)c1N [AICAR],miR-221/222 levels in VSMCs,[4],effective in reducing miR-221/222 in the VSMCs from diabetic mice to levels similar to VSMCs from non-diabetic mice
"2′OMe-miR-222: silencing RNA, 2′-O-methylated, directly inhibiting miR-221/222; sequence 5′-ACCCAGUAGCCAGAUGUAGCU-3′ (likely SEQ ID NO 4) (all 2'-O-methyl, backbone not given here)",miR-221/222 levels in the vasculature,[7],reduces miR-221/222 levels back to normal
same,intimal thickening,"[6]; diabetic mice, Pluronic gel on wire injured femoral artery, 14 days",effective at reducing intimal thickening in the diabetic mice to levels similar to that of normal mice
same,p27Kip1 protein levels,[8],restores levels of p27^Kip1 protein to normal levels
